From EP0753300B1, “Use of antioxidative steroids for the manufacture of pharmaceutical preparations for substition therapy in man” (priority 1995, dated 1997)

Experiments:
[1] = format: in vivo, Mann
Excerpt: Die aufgezeigten Systeme […] Studie an ä[…]. […] Alter von 52 bis 63 Jahren über 6 Monate […] Probanden nahm eine weitere Medikation ein. Bei 6 der 12 Probanden ergab […]-, Leber- und […] vor Beginn der Studie bei allen Probanden unauffällig. Auch die Plasma-[…] Testosteron > 12 nmol/[…] Testosteron > 0,2 nmol/[…] 6 Probanden […] OGTT erhöhte Gesamtcholesterol- und […] die In-vivo-Bestimmung der LDL-Cholesterol-Oxidation und die Hormonanalysen wurden zu Studienbeginn, danach wöchentlich und einen Tag […] und morgendlichem Fasten jeweils zwischen 8 und 10 Uhr morgens).

VCAM-1 = assay: Inhibition of TNFα-induced VCAM-1 expression in cultured endothelial cells (histological assessment); format: cell-based, humanen Ursprungs; settings: cultured human endothelial cells
Excerpt: (§1) J. Clin. Endocrinol. Metab. 7:1619-1624 (1994) ausgeführt. Als Vergleich zu […] 17β-Estradiol, welches mit (x) gekennzeichnet wurde. Tabelle 1

ICAM-1 = assay: Inhibition of TNFα-induced ICAM-1 expression in cultured endothelial cells (histological assessment); format: cell-based, humanen Ursprungs; set-up: key: +: wenig wirksam; ++: gut wirksam; +++: sehr gut wirksam; settings: cultured human endothelial cells
Excerpt: as §1

[2] = Adjuvant arthritis in male rats, oral, 21 days; format: in vivo, Lewis-Ratten; settings: for Sekundärarthritis Score: 8 per group, group sum, max. 72 (arthritic control); for % Hemmung Primärarthritis max. Wirkung: swelling of injected left hind paw
Experimental: Die Adjuvansarthritis bei Lewis-Ratten ist ein gut bekanntes und etabliertes Modell für die chronische Rheumatoid-Arthritis des Menschen [Newbould BB: Chemotherapy of arthritis induced in rats by mycobacterial adjuvant. Br. J. Pharmacol. 21:127-136 (1963); Hirschelmann R: Die 6-Sulfanilamidoindazol-Arthritis und die Adjuvansarthritis der Ratte als Modelle zur Testung von Antiphlogistika. Dissertation B (Habil.-Schrift), Halle, 1976]
Die Arthritis wurde durch Injektion von 0,1 ml Freund'sches Adjuvans in die linke Hinterpfote ausgelöst. Prüfparameter waren die Hemmung der Schwellung der linken Hinterpfote und der Grad der Sekundärarthritis durch Beurteilung der Schwellung der drei anderen Pfoten. Tabelle 3

[3] = Pentetrazol kindling, seizure stages in male mice; format: in vivo, Mäuse
Experimental: Aus Tabelle 2 ist ersichtlich, daß J 861 - 14,15α-Methylen-8-dehydro-17α-estradiol z.B. bereits in einer Dosierung von 1 mg/kg nach einmaliger oraler Gabe eine Stunde vor der krampfauslösenden Pentetrazol-Injektion an männlichen Mäusen das Krampfstadium 3 hemmt. In steigender Dosierung und bei längerer Substanzapplikation werden auch die anderen Krampfstadien beeinflußt.

[4] = Carrageenin paw oedema of the male rat; format: in vivo, Ratte; settings: 24 hours after provocation of the oedema, inflammation no longer acute
Estrogen-Rezeptor = molecular target: T1, Estrogen-Rezeptor (Oryctolagus cuniculus, UniProt G1SML6); assay: Estrogen receptor affinity, competitive binding with [3H]-Ethinylestradiol in uterus cytosol; set-up: species or system Kaninchen; settings: quotient of IC50 of 17β-Estradiol and of test substance; rabbit uterus cytosol; tracer [3H]-Ethinylestradiol 3 nM; 0 to 4 °C, 18 h
T1 construct: Es wurden weibliche Kaninchen (weiße Neuseeländer) im Gewicht von 1,5 bis 2 kg in Barbituratnarkose getötet, die Uteri entnommen; from tissue; host or cells: rabbit uterus cytosol (100 000 g supernatant of the homogenate)
T1 sequence (G1SML6 1-598): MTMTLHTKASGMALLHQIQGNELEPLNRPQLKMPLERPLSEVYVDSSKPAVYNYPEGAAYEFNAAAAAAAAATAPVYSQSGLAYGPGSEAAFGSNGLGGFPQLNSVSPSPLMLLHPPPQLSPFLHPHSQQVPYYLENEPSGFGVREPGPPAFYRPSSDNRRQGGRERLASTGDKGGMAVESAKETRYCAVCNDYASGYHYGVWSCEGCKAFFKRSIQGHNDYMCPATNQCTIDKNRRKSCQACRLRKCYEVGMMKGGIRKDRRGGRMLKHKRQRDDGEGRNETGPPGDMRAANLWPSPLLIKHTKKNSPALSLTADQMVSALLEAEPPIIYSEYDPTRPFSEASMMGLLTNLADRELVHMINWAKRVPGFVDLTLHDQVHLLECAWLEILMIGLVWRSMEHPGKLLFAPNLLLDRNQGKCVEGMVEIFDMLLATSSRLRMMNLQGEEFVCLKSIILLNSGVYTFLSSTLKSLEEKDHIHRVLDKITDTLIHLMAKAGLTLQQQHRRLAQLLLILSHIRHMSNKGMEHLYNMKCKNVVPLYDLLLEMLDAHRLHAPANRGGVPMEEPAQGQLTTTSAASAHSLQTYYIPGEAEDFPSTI
Experimental: Die Affinität zum Estrogen Rezeptor wurde in Kaninchen-Uterus-Cytosol bestimmt durch competitive Bindung von ^3H-markiertem Tracer und der jeweils zu testenden Verbindungen in Konzentrationsreihen, die die IC50 einschlossen. […] Das nach Zentrifugieren bei 16 000 g und 100 000 g gewonnene Cytosol wurde portionsweise schockgefroren und bei -30 °C aufbewahrt. Das geeignet verdünnte Cytosol (Rezeptorkonzentration ca. 0,3 nM) wurde mit dem Tracer [^3H]-Ethinylestradiol (3nM) und den zu prüfenden Competitoren bei 0 bis 4 °C für 18 Stunden inkubiert. Der freie Tracer wurde durch Adsorption an Aktivkohle/Dextran (1 %/0,1 %) und Zentrifugation abgetrennt und die gebundene ^3H-Aktivität im Überstand gemessen.

[5] = 1,0 mg/kg, single oral dose one hour before pentetrazol

Compound: C[C@]12CC[C@@H]3c4ccc(O)cc4CC[C@H]3[C@@H]1CC[C@H]2O [17α-Estradiol]
- Einfluß auf die gewählten Hormonparameter ([1]; 2 mg daily, 6 months, older men, includes missing SHBG rise): nicht signifikant beeinflußt
- Schlafqualität und Libido ([1]; 2 mg daily, 6 months, reported by subjects): Verbesserung
- Freies Testosteron ([1]; Versuchsende, after 6 months 2 mg daily, 12 overweight men 52-63 years, Versuchsbeginn 0.32 ± 0.14): 0.33 ± 0.15 nmol/L
- DHEA ([1]; Versuchsende, after 6 months 2 mg daily, 12 overweight men 52-63 years, Versuchsbeginn 14.3 ± 10.6): 13.46 ± 8.13 nmol/L
- Gesamt-Testosteron ([1]; Versuchsende, after 6 months 2 mg daily, 12 overweight men 52-63 years, Versuchsbeginn 16.5 ± 4.6): 15.6 ± 5.1 nmol/L
- Insulin ([1]; Versuchsende, after 6 months 2 mg daily, 12 overweight men 52-63 years, Versuchsbeginn 17 ± 10): 15 ± 9 mlE/L
- SHBG ([1]; Versuchsende, after 6 months 2 mg daily, 12 overweight men 52-63 years, Versuchsbeginn 38 ± 17): 39 ± 18 nmol/L
- DHEAS ([1]; Versuchsende, after 6 months 2 mg daily, 12 overweight men 52-63 years, Versuchsbeginn 5412 ± 3711): 5660 ± 3292 nmol/L
- Lp(a) ([1]; Versuchsende, after 6 months 2 mg daily, Versuchsbeginn 6.0 ± 1.0): 5.7 ± 0.7 mg/dL
- LDL-Cholesterol ([1]; Versuchsende, after 6 months 2 mg daily, Versuchsbeginn 154 ± 10.5): 135 ± 5.2 mg/dL
- Gesamt-Cholesterol ([1]; Versuchsende, after 6 months 2 mg daily, Versuchsbeginn 225 ± 11.1, p<0.05): 195 ± 5.7 mg/dL
- Triglyceride ([1]; Versuchsende, after 6 months 2 mg daily, Versuchsbeginn 226 ± 31.1, p<0.05): 132 ± 1.5 mg/dL
- LDL-Cholesterol-Oxidation ([1]; older men under 17α-Estradiol, blood samples, figures not given): deutliche Verzögerung
- Hemmung der Expression von VCAM-1 (VCAM-1): + +
- Hemmung der Expression von ICAM-1 (ICAM-1): + +
- Sekundärarthritis Score ([2]; 1 mg/kg oral): 43
- % Hemmung Primärarthritis max. Wirkung ([2]; 1 mg/kg oral): 36%
- Sekundärarthritis Score ([2]; 10 mg/kg oral): 35
- % Hemmung Primärarthritis max. Wirkung ([2]; 10 mg/kg oral): 39%

Compound: C[C@]12CC[C@@H]3c4ccc(O)cc4CC[C@H]3[C@@H]1CC[C@@H]2O [17β-Estradiol, reference compound]
- Hemmung der Expression von VCAM-1 (VCAM-1): + +
- Hemmung der Expression von ICAM-1 (ICAM-1): +
- Sekundärarthritis Score ([2]; 1 mg/kg oral): 47
- % Hemmung Primärarthritis max. Wirkung ([2]; 1 mg/kg oral): 21%
- Sekundärarthritis Score ([2]; 10 mg/kg oral): 36
- % Hemmung Primärarthritis max. Wirkung ([2]; 10 mg/kg oral): 35%

Compound: NC(=O)N1c2ccccc2C=Cc2ccccc21 [Carbamazepin, reference compound]
- Krampfstadien 1/2 Kl (Krampfindex gesenkt) ([3]; 24 mg/kg): -
- Krampfstadien 1/2 LZ[s] (Latenzzeit bis zur Ausprägung der Krämpfe erhöht) ([3]; 24 mg/kg): +
- Krampfstadien 3 Kl (Krampfindex gesenkt) ([3]; 24 mg/kg): -
- Krampfstadien 3 LZ[s] (Latenzzeit bis zur Ausprägung der Krämpfe erhöht) ([3]; 24 mg/kg): +
- Krampfstadien 4/5/6 Kl (Krampfindex gesenkt) ([3]; 24 mg/kg): +
- Krampfstadien 4/5/6 LZ[s] (Latenzzeit bis zur Ausprägung der Krämpfe erhöht) ([3]; 24 mg/kg): ++

Compound: O=C(O)Cc1ccccc1Nc1c(Cl)cccc1Cl [Diclofenac-Natrium]
- Hemmeffekte [4]: nur noch geringe Hemmeffekte

Compound: C[C@]12CCC3=C(CCc4cc(O)ccc43)[C@@H]1CC[C@H]2O [J 811, 8-Dehydro-17α-estradiol]
- relative Bindungsaffinität zum Estrogen-Rezeptor (RBA) (Estrogen-Rezeptor): 21%

Compound: C[C@]12CCC3=C(CCc4cc(O)ccc43)[C@@]13C[C@H]3C[C@H]2O [J 861, 14,15α-Methylen-8-dehydro-17α-estradiol]
- Krampfstadien 1/2 Kl (Krampfindex gesenkt) ([3]; 10 mg/kg): -
- Krampfstadien 1/2 LZ[s] (Latenzzeit bis zur Ausprägung der Krämpfe erhöht) ([3]; 10 mg/kg): -
- Krampfstadien 3 Kl (Krampfindex gesenkt) ([3]; 10 mg/kg): ++
- Krampfstadien 3 LZ[s] (Latenzzeit bis zur Ausprägung der Krämpfe erhöht) ([3]; 10 mg/kg): -
- Krampfstadien 4/5/6 Kl (Krampfindex gesenkt) ([3]; 10 mg/kg): +
- Krampfstadien 4/5/6 LZ[s] (Latenzzeit bis zur Ausprägung der Krämpfe erhöht) ([3]; 10 mg/kg): ++
- Krampfstadien 1/2 Kl (Krampfindex gesenkt) ([3]; 100 mg/kg): -
- Krampfstadien 1/2 LZ[s] (Latenzzeit bis zur Ausprägung der Krämpfe erhöht) ([3]; 100 mg/kg): -
- Krampfstadien 3 Kl (Krampfindex gesenkt) ([3]; 100 mg/kg): ++
- Krampfstadien 3 LZ[s] (Latenzzeit bis zur Ausprägung der Krämpfe erhöht) ([3]; 100 mg/kg): -
- Krampfstadien 4/5/6 Kl (Krampfindex gesenkt) ([3]; 100 mg/kg): +
- Krampfstadien 4/5/6 LZ[s] (Latenzzeit bis zur Ausprägung der Krämpfe erhöht) ([3]; 100 mg/kg): ++
- Krampfstadien 1/2 Kl (Krampfindex gesenkt) [3, 5]: -
- Krampfstadien 1/2 LZ[s] (Latenzzeit bis zur Ausprägung der Krämpfe erhöht) [3, 5]: -
- Krampfstadien 3 Kl (Krampfindex gesenkt) [3, 5]: +++
- Krampfstadien 3 LZ[s] (Latenzzeit bis zur Ausprägung der Krämpfe erhöht) [3, 5]: -
- Krampfstadien 4/5/6 Kl (Krampfindex gesenkt) [3, 5]: +
- Krampfstadien 4/5/6 LZ[s] (Latenzzeit bis zur Ausprägung der Krämpfe erhöht) [3, 5]: +
- relative Bindungsaffinität zum Estrogen-Rezeptor (RBA) (Estrogen-Rezeptor): 32%
- Hemmung der Expression von VCAM-1 (VCAM-1): + + +
- Hemmung der Expression von ICAM-1 (ICAM-1): + + +
- Sekundärarthritis Score ([2]; 1 mg/kg oral): 72
- % Hemmung Primärarthritis max. Wirkung ([2]; 1 mg/kg oral): 16%
- Sekundärarthritis Score ([2]; 10 mg/kg oral): 46
- % Hemmung Primärarthritis max. Wirkung ([2]; 10 mg/kg oral): 38%
- Sekundärarthritis Score ([2]; 25 mg/kg oral): 38
- % Hemmung Primärarthritis max. Wirkung ([2]; 25 mg/kg oral): 61%
- Sekundärarthritis Score ([2]; 50 mg/kg oral): 35
- % Hemmung Primärarthritis max. Wirkung ([2]; 50 mg/kg oral): 47%
